Consider 26 compounds from patent US6344476B1, “Inhibition of p38 kinase activity by aryl ureas” (Bayer Corporation, priority 1997, dated 2002).

Molecules are shown by their SMILES.

What is called melting point is the temperature, or range, at which the solid turns liquid. The compound `CNC(=O)c1sc(C(C)(C)C)cc1NC(=O)Nc1ccc(C)c(F)c1` [Example 29, N-(2-Methylcarbamoyl-5-tert-butyl-3-thienyl)-N′-(3-fluoro4-methylphenyl)urea] registered a melting point of 182 to 183 °C. Consider `CNC(=O)c1sc(C(C)(C)C)cc1NC(=O)Nc1ccc(C(C)C)cc1` [Example 24, N-(2-Methylcarbamoyl-5-tert-butyl-3-thienyl)-N′-(4-isopropylphenyl)urea], for which the melting point was 113 to 120 °C. With `COC(=O)c1sc(C(C)(C)C)cc1NC(=O)Nc1cccc(C)c1` [Example 9, N-(2-Carbomethoxy-5-tert-butyl-3-thienyl)-N′-(3-methylphenyl)urea] the figure was 70 to 72 °C. `COC(=O)c1cc(C(C)C)sc1NC(=O)Nc1ccccc1` [Example 41, N-(3-Carbomethoxy-5-isopropyl-2-thienyl)-N′-(phenyl)urea] gave a melting point of 64 to 65 °C. `COC(=O)c1cc(C(C)C)sc1NC(=O)Nc1ccc(C)cc1` [Example 42, N-(3-carbomethoxy-5-isopropyl-2-thienyl)-N′-(4-methylphenyl)urea] had a melting point of 49 to 51 °C. Regarding `COC(=O)c1cc(C(C)(C)C)sc1NC(=O)Nc1ccccc1` [Example 43, N-(3-Carbomethoxy-5-tert-butyl-2-thienyl)-N′-(phenyl)urea], the melting point fell in the range of 80 to 82 °C. The figure for `COC(=O)c1sc(C(C)(C)C)cc1NC(=O)Nc1ccc(F)cc1` [Example 54, N-(2-carbomethoxy-5-tert-butyl-3-thienyl)-N′-(4-fluorophenyl)urea] is 160 to 162 °C.

Consider `Cc1ccc(NC(=O)Nc2cc(C(C)(C)C)sc2CNC(=O)CN)cc1` [Example 51, N-(2-(N-glycylaminomethyl)-5-tert-butyl-3-thienyl)-N′-(4-methylphenyl)urea], for which the melting point was 93 to 96 °C.

`CNC(=O)c1oc(C(C)(C)C)cc1NC(=O)Nc1ccc(F)cc1` [Example 36, N-(2-methylcarbamoyl-5-tert-butyl-3-furyl)-N′-(4-fluorophenyl)urea] registered a melting point of 109 to 111 °C.

For `COC(=O)c1sc(C(C)C)cc1NC(=O)Nc1ccccc1` [Example 1, N-(2-carbomethoxy-5-isopropyl-3-thienyl)-N′-(phenyl)urea], the melting point fell in the range of 108 to 110 °C. Regarding `CNC(=O)c1sc(C(C)(C)C)cc1NC(=O)Nc1ccc(C)cc1C` [Example 27, N-(2-Methylcarbamoyl-5-tert-butyl-3-thienyl)-N′-(2,4-dimethylphenyl)urea], the melting point lay in the range of 195 to 196 °C. The figure for `CNC(=O)c1sc(C(C)(C)C)cc1NC(=O)Nc1ccc(C)cc1` [Example 22, N-(2-methylcarbamoyl-5-tert-butyl-3-thienyl)-N′-(4-methylphenyl)urea] is 202 to 204 °C; for `COC(=O)c1[nH]c(C(C)(C)C)cc1NC(=O)Nc1ccc(C)cc1` [Example 38, N-(2carbomethoxy-5-tert-butyl-3-pyrrolyl)-N′-(4-methyl-phenyl)urea] it is 257 to 258 °C; for `Cc1ccc(NC(=O)Nc2cc(C(C)(C)C)sc2CNC(=O)CNC(=O)OC(C)(C)C)cc1` [Example 52, N-(2-(N-(N-carbo-tert-butoxyglycyl)aminomethyl)-5-tert-butyl-3-thienyl)-N′-(4-methylphenyl)urea] it is 174 to 176 °C. With `COC(=O)c1oc(C(C)(C)C)cc1NC(=O)Nc1ccc(C)cc1` [Example 32, N-(2-carbomethoxy-5-tert-butyl-3-furyl)-N′-(4-methylphenyl)urea] the figure was 78 to 79 °C. The figure for `COC(=O)c1oc(C(C)(C)C)cc1NC(=O)Nc1cccc(Cl)c1Cl` [Example 34, N-(2-Carbomethoxy-5-tert-butyl-3-furyl)-N′-(2,3-dichlorophenyl)urea] is 195 to 197 °C; for `COC(=O)c1[nH]c(C(C)(C)C)cc1NC(=O)Nc1ccccc1` [Example 37, N-(2-Carbomethoxy-5-tert-butyl-3-pyrrolyl)-N′-(phenyl)urea] it is 262 to 263 °C (dec.); for `COC(=O)c1sc(C(C)(C)C)cc1NC(=O)Nc1ccc(C)s1` [Example 14, N-(2-Carbomethoxy-5-tert-butyl-3-thienyl)-N′-(5-methyl-2-thienyl)urea] it is 118 to 120 °C. `CNC(=O)c1[nH]c(C(C)(C)C)cc1NC(=O)Nc1ccc(C)cc1` [Example 113, N-(2-methylcarbamoyl-5-tert-butyl-3-pyrrolyl)-N′-(4-methylphenyl)urea] had a melting point of 164 to 166 °C. The figure for `COC(=O)c1cc(C(C)(C)C)sc1NC(=O)Nc1ccc(C)cc1` [Example 44, N-(3-carbomethoxy-5-tert-butyl-2-thienyl)-N′-(4-methylphenyl)urea] is 109 to 111 °C; for `COC(=O)c1c(NC(=O)Nc2ccc(C)cc2)cc(C(C)(C)C)n1C` [Example 40, N-(N-methyl-2-carbomethoxy-5-tert-butyl-3-pyrrolyl)-N′-(4-methylphenyl)urea] it is 171 to 172 °C. The figure for `CC(=O)NCc1sc(C(C)(C)C)cc1NC(=O)Nc1ccc(C)cc1` [Example 50, N-(2-(N-Acetylaminomethyl)-5-tert-butyl-3-thienyl)-N′-(4-methylphenyl)urea] is 203 to 205 °C; for `CCc1ccc(NC(=O)Nc2cc(C(C)(C)C)sc2C(=O)NC)cc1` [Example 23, N-(2-Methylcarbamoyl-5-tert-butyl-3-thienyl)-N′-(4ethylphenyl)urea] it is 101 to 104 °C. The figure for `CNC(=O)c1sc(C(C)(C)C)cc1NC(=O)Nc1ccc(F)c(Cl)c1` [Example 30, N-(2-Methylcarbamoyl-5-tert-butyl-3-thienyl)-N′-(3chloro-4-fluorophenyl)urea] is 203 to 204 °C; for `CNC(=O)c1sc(C(C)(C)C)cc1NC(=O)Nc1ccc(F)cc1` [Example 25, N-(2-methylcarbamoyl-5-tert-butyl-3-thienyl)-N′-(4-fluorophenyl)urea] it is 203 to 204 °C. `CNC(=O)c1sc(C(C)(C)C)cc1NC(=O)Nc1ccc(C)c(Cl)c1` [Example 28, N-(2-Methylcarbamoyl-5-tert-butyl-3-thienyl)-N′-(3-chloro-4-methylphenyl)urea] gave a melting point of 178 to 179 °C.
